IC50 and inhibition data for 18 compounds are collected here from patent publication US20150353530A1 (CORTENDO AB (PUBL), priority 2013, published 2015).

The IC50 is the concentration that inhibits the measured activity by half.

Format in all cases: cell-based
One test has as its target T1, recombinant CYP-11 (Homo sapiens, UniProt P15538).
T1 construct: expressed in transfected cells
T1 sequence (P15538 25-503): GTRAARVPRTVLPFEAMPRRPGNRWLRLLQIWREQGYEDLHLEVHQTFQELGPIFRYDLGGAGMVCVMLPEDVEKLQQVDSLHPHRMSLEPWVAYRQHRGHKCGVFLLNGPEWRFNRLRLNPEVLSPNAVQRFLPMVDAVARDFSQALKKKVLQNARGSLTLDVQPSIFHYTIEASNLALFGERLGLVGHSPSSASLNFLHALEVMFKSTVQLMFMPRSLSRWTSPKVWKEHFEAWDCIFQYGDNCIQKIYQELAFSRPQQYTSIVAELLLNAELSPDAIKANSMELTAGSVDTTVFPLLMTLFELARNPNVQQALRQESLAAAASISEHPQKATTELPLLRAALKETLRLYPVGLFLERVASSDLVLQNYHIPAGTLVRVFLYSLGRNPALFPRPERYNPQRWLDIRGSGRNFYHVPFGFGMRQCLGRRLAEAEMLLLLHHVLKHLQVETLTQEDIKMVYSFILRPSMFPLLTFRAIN
Kind of test: Cyp11 assay: AD293 cells over-expressing recombinant CYP-11, cortisol formation from 11-deoxycortisol by LC/MS. The note with it: eight concentrations 10 μM to 4.5 nM. The procedure:
(§1) AD293 cells that stably over-express recombinant CYP-11 were seeded in 96 well plates coated with poly D-lysine (15,000 cell per well) and incubated at 37° C. for 24 hours in Dulbecco's Modified Eagle Medium (DMEM) with Fetal Bovine Serum (FBS) that is stripped of hormones by charcoal treatment. The media is then removed, the cells are washed once with Phosphate buffer saline solution, and 50 μL Dulbecco's Modified Eagle Medium (DMEM) with Fetal Bovine Serum (FBS) that is stripped of hormones by charcoal treatment is added. Compounds of the disclosure are then added to the wells in eight concentration spanning 10 μM to 4.5 nM, and the plates are incubated for an additional 60 minutes at 37° C. 11-deoxycortisol is then added (2.0 μM) and the plates are incubated for an additional 12 hours at 37° C. After incubation, 50 uL of the supernatant (medium) is transferred into a fresh plate and 150 uL of an acetonitrile solution containing 200 ng/ml of Telmisartan is added. The sample is mixed and then placed in a centrifuge at 2000 rpm for 5 minutes.

For another test, the target named is T2, recombinant CYP-21 (Homo sapiens, UniProt P08686).
T2 construct: expressed in transfected cells
T2 sequence (P08686 1-495): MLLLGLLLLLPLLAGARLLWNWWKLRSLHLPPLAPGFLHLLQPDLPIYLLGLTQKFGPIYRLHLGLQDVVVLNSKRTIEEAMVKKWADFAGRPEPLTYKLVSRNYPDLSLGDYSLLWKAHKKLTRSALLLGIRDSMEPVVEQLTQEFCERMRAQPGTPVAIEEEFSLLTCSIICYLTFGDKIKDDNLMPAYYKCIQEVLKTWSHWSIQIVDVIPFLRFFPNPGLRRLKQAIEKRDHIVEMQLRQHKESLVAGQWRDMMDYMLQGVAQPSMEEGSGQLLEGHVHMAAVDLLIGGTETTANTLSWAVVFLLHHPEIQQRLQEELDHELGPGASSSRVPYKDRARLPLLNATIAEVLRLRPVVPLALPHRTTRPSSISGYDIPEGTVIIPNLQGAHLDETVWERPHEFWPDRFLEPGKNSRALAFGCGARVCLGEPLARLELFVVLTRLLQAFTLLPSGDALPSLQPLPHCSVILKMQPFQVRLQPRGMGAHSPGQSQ
Kind of test: Cyp21 assay: AD293 cells over-expressing recombinant CYP-21, 11-deoxycortisol formation from 17α-OH Progesterone by LC/MS. The settings on record: eight concentrations 10 μM to 4.5 nM. The method, then: as §1, with “Cyp21 assay protocol: AD293” for “AD293”, “CYP-21” for “CYP-11”, “(10,000” for “(15,000”, “17α-OH Progesterone” for “11-deoxycortisol”, “(1.0” for “(2.0”, “45 minutes” for “12 hours”

For the next test, the target named is T3, recombinant CYP-17 (Homo sapiens, UniProt P05093).
T3 construct: expressed in transfected cells
T3 sequence (P05093 1-508): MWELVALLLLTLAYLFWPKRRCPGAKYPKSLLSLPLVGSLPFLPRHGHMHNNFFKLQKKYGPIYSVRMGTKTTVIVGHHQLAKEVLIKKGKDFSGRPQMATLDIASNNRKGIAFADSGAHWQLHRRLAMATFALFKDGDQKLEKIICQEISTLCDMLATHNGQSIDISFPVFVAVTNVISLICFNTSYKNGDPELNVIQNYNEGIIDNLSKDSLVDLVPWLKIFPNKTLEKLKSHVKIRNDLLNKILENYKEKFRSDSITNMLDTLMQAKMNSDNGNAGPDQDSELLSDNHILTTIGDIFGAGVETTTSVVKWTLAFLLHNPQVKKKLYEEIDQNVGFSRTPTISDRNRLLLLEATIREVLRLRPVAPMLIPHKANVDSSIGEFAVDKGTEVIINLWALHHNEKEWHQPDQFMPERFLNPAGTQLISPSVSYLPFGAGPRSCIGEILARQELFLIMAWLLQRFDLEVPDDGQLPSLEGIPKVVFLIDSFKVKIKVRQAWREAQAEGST
Kind of test: Cyp17 assay: AD293 cells over-expressing recombinant CYP-17, 3H-acetic acid release from [21-3H] 17α-hydroxyl-Pregnenolone. The settings on record: for IC50: AD293 cells, eight concentrations 10 μM to 4.5 nM. The procedure:
Cyp17 assay protocol: AD293 cells that stably over-express recombinant CYP-17 were seeded in 96 well plates coated with poly D-lysine (15,000 cell per well) and incubated at 37° C. for 24 hours in Dulbecco's Modified Eagle Medium (DMEM) with Fetal Bovine Serum (FBS) that is stripped of hormones by charcoal treatment. The media is then removed, the cells are washed once with Phosphate buffer saline solution, and 50 μL Dulbecco's Modified Eagle Medium (DMEM) with Fetal Bovine Serum (FBS) that is stripped of hormones by charcoal treatment is added. Compounds of the disclosure are then added to the wells in eight concentration spanning 10 μM to 4.5 nM, and the plates are incubated for an additional 60 minutes at 37° C. [21-^3H] […] The media is then collected, 200 μL of chloroform is added, and the mixture is shaken for 1 hour. The aqueous layer is then separated and analyzed for the presence of ^3H-acetic acid using a Perkin Elmer Topcount NXT to determine IC50s of the compounds of the disclosure.

For `CCOC(=O)CNC(=O)N1CCN(c2ccc(OC[C@@H]3CO[C@@](Cn4ccnc4)(c4ccc(Cl)cc4Cl)O3)cc2)CC1` [Entry 13], the IC50 turned out to be 66 nM at recombinant CYP-11, 710 nM on recombinant CYP-21 and 25 nM on recombinant CYP-17.
The like results for `CCNC(=O)N1CCN(c2ccc(OC[C@@H]3CO[C@@](Cn4ccnc4)(c4ccc(Cl)cc4Cl)O3)cc2)CC1` [Entry 12] were, in that order, 52 nM, 690 nM and 35 nM.
On the same counts, the results for `COC(=O)[C@H](Cc1ccccc1)NC(=O)N1CCN(c2ccc(OC[C@@H]3CO[C@@](Cn4ccnc4)(c4ccc(Cl)cc4Cl)O3)cc2)CC1` [Entry 17] are 100 nM, 360 nM and 43 nM.
On to `O=S(=O)(CCC(F)(F)F)N1CCN(c2ccc(OC[C@@H]3CO[C@@](Cn4ccnc4)(c4ccc(Cl)cc4Cl)O3)cc2)CC1` [Entry 27], for which the IC50 on recombinant CYP-11 was 10000 nM; on recombinant CYP-21 it was 373 nM; at recombinant CYP-17, 240 nM.
The like results for `Clc1ccc([C@]2(Cn3ccnc3)OC[C@@H](COc3ccc(N4CCN(C5=NCCO5)CC4)cc3)O2)c(Cl)c1` (racemic) [Entry 34] were, in that order, 148 nM, 423 nM and 30 nM.
Turning to `COC(=O)N1CCN(c2ccc(OC[C@@H]3CO[C@@](Cn4ccnc4)(c4ccc(Cl)cc4Cl)O3)cc2)CC1` (racemic) [Entry 1], the IC50 at recombinant CYP-11 was determined as 100 nM; on recombinant CYP-21 it was 160 nM. The inhibition at 0.1 µM at recombinant CYP-17 (AD293, 4 h, read-out: Cyp17 % @ 0.1 μM (printed in the Cyp17 IC50 column)) was found to be 83%.
For `COC(=O)[C@@H](NC(=O)N1CCN(c2ccc(OC[C@H]3CO[C@](Cn4ccnc4)(c4ccc(Cl)cc4Cl)O3)cc2)CC1)C(C)C` [Entry 18], the values for the IC50 on recombinant CYP-11, on recombinant CYP-21 and on recombinant CYP-17 were 110 nM, 720 nM and 137 nM, respectively.
The like results for `N=C(N)N1CCN(c2ccc(OC[C@@H]3CO[C@@](Cn4ccnc4)(c4ccc(Cl)cc4Cl)O3)cc2)CC1` [Entry 33] were, in that order, 1900 nM, 10000 nM and 340 nM.
For the compound `CN(C)C(=O)N1CCN(c2ccc(OC[C@@H]3CO[C@@](Cn4ccnc4)(c4ccc(Cl)cc4Cl)O3)cc2)CC1` (racemic) [Entry 3], the IC50 at recombinant CYP-11 and at recombinant CYP-17 was 100 nM in each case.
For `O=S(=O)(CC(F)F)N1CCN(c2ccc(OC[C@@H]3CO[C@@](Cn4ccnc4)(c4ccc(Cl)cc4Cl)O3)cc2)CC1` [Entry 29], the IC50 came out at 280 nM at recombinant CYP-11, 80 nM on recombinant CYP-21 and 11 nM at recombinant CYP-17.
On the same counts, the results for `COC(=O)[C@@H](NC(=O)N1CCN(c2ccc(OC[C@@H]3CO[C@@](Cn4ccnc4)(c4ccc(Cl)cc4Cl)O3)cc2)CC1)C(C)C` [Entry 16] are 100 nM, 244 nM and 10 nM.
In the case of `CCNC(=O)N1CCN(c2ccc(OC[C@H]3CO[C@](Cn4ccnc4)(c4ccc(Cl)cc4Cl)O3)cc2)CC1` [Entry 14], the IC50 came out at 500 nM on recombinant CYP-11 and 43 nM on recombinant CYP-17.
For `CCOC(=O)CNC(=O)N1CCN(c2ccc(OC[C@H]3CO[C@](Cn4ccnc4)(c4ccc(Cl)cc4Cl)O3)cc2)CC1` [Entry 15], the figures for the IC50 on recombinant CYP-11, on recombinant CYP-21 and at recombinant CYP-17 were 530 nM, 2460 nM and 310 nM, respectively.
On the same counts, the results for `O=S(=O)(CC(F)(F)F)N1CCN(c2ccc(OC[C@@H]3CO[C@@](Cn4ccnc4)(c4ccc(Cl)cc4Cl)O3)cc2)CC1` [Entry 20] are 70 nM, 78 nM and 610 nM.
The like results for `CCCS(=O)(=O)N1CCN(c2ccc(OC[C@@H]3CO[C@@](Cn4ccnc4)(c4ccc(Cl)cc4Cl)O3)cc2)CC1` [Entry 22] were, in that order, 91 nM, 128 nM and 8 nM.
On the same counts, the results for `COC(=O)[C@H](Cc1ccccc1)NC(=O)N1CCN(c2ccc(OC[C@H]3CO[C@](Cn4ccnc4)(c4ccc(Cl)cc4Cl)O3)cc2)CC1` [Entry 19] are 240 nM, 740 nM and 250 nM.
Take `CC(C)CS(=O)(=O)N1CCN(c2ccc(OC[C@@H]3CO[C@@](Cn4ccnc4)(c4ccc(Cl)cc4Cl)O3)cc2)CC1` [Entry 23]: the results for the IC50 at recombinant CYP-11, on recombinant CYP-21 and on recombinant CYP-17 were 388 nM, 249 nM and 45 nM, respectively.
As to `COCCOC(=O)N1CCN(c2ccc(OC[C@@H]3CO[C@@](Cn4ccnc4)(c4ccc(Cl)cc4Cl)O3)cc2)CC1` (racemic) [Entry 2], the IC50 worked out at 100 nM at recombinant CYP-11, 230 nM at recombinant CYP-21 and 100 nM at recombinant CYP-17.
